Measured values published in PMC8728441, “Biosynthesis of the redox cofactor mycofactocin is controlled by the transcriptional regulator MftR and induced by long-chain acyl-CoA species” (The Journal of Biological Chemistry, 2021).

Tests used:
MftR–Omft complex = experiment: Competitive EMSA screen for effectors of MftR; assay type: binding, Mycobacterium smegmatis mc^2155; settings: 6-FAM Omft 0.5 μM, MftR 5 μM, effectors 100 μM
Description: Next, we assessed which metabolites activate MftR and thus could induce MFT production. To do so, we carried out competitive EMSAs where FAM-labeled Omft and MftR were incubated in the presence of potential effectors. We initially chose our effectors based on cholesterol catabolism, a process that putatively includes MFT biosynthetic genes ([38]). […] Knowing that TFRs have a propensity to be activated by fatty acyl-CoAs ([20]), we expanded our effector screening to include short-chain, medium-chain, and long-chain acyl-CoAs.
Figure 4 Effectors of MftR.A, an EMSA used to screen effectors of MftR. The 6-FAM–labeled Omft region (0.5 μM) was incubated with the MftR (5 μM) in the absence or the presence of effectors (100 μM). Protein–DNA complexes were separated by electrophoresis on 5% polyacrylamide gel. […] B, a representative isothermal titration calorimetry thermogram for the binding of the oleoyl-CoA to MftR regulator (blue) and the control of oleoyl-CoA into buffer (red). Each peak corresponds to the injection of 2.22 μl of 250 μM oleoyl-CoA into the cell containing 16 μM MftR or buffer. The integrated thermogram (blue dots) was fitted to a single-site binding model (black line) to determine the Kd. […] C, a bar graph depicting the ITC measured Kds for various acyl-CoAs. Bars represent the mean of three independent experiments, and the error bars represent the standard deviation of the experiments. 6-FAM, 6-carboxyfluorescein; ITC, isothermal titration calorimetry; Omft, mft operator.
His-tagged MftR was used to assess the protein binding to Pmft–MftA promoter fragment. DNA was mixed with increasing concentrations of the MftR protein in the reaction buffer (50 mM Hepes, 50 mM NaCl 0.1 mM EDTA, and pH 7.5) and incubated at room temperature for 10 min. The reactions were resolved by electrophoresis on a 5% (v/v) nondenaturing polyacrylamide gel in 1× Tris/borate/EDTA buffer at 200 V for 20 min on ice. Prior to the analysis, the gel was prerun for 30 min at 150 V on ice. Results were visualized by GelRed and recorded using Azure Biosystems 600 imaging system.

[1] = test system: mft BGC (MftA–mCherry reporter); experiment: Growth curve assays with Msmeg/Pmft–pCherry; assay type: cell-based, Mycobacterium smegmatis mc^2155
Description: To directly establish that oleoyl-CoA induces MFT biosynthesis in vivo, a colony dilution experiment was carried out using Msmeg transformed with Pmft–pCherry grown on Middlebrook 7H9 (7H9) supplemented with glucose or oleic acid (OA). We used OA in the growth media since it is well known that bacterial fatty acid shuttle systems convert free fatty acids to the corresponding acyl-CoAs and since Msmeg encodes for at least two known fatty acid transporters ([48], [49]). […] To assess when this occurs in real time, growth curve assays with Msmeg/Pmft–pCherry were carried out. […] We observed the same effect when OA was added to the media after 12 h of incubation. Next, we determined if MFT induction is dependent on the concentration of OA. We carried out a titration series of growth curves where 7H9 media were supplemented with 0.05% w/v glucose and 0.01, 0.02, 0.05, or 0.1% w/v OA. […] However, in general, increasing concentrations of OA had little effect on the overall production of the MftA–mCherry fusion. The lack of immediate production of MftA–mCherry after the addition of OA and the concentration independence is perplexing. […] Rather, we expect that a subtler and unknown mechanism is at play.
Figure 7 Growth curve assays with Msmeg/Pmft–pCherry.A, absorbance at 600 nm measurements for the 7H9 media supplemented with 0.1% tyloxapol, 50 μg/ml hygromycin, and glucose and/or oleic acid (OA) as carbon sources. Concentrations of carbon sources were glucose only (0.1% w/v), OA only (0.1% w/v), and glucose/OA (0.05% w/v each) where OA was added after 12 h (blue arrow). B, corresponding fluorescence intensities (excitation of 585 nm/emission of 612 nm) of Msmeg/Pmft–pCherry cultures described in A. C, absorbance at 600 nm measurements for dose-dependent addition of OA to the 7H9 media supplemented with 0.05% w/v glucose and 0.01, 0.02, 0.05, 0.1% w/v of OA. D, corresponding fluorescence intensities of Msmeg/Pmft–pCherry cultures described in C. 7H9, Middlebrook 7H9; Msmeg, Mycobacterium smegmatis mc^2155; Pmft, mft promoter.
For fluorescence-based assays, a single Msmeg colony harboring Pmft–pCherry was used to inoculate 25 ml of 7H9 media supplemented with 0.1% tyloxapol, 0.1% w/v glycerol, 50 μg/ml hygromycin, and 0.1% w/v glucose. For cultures containing OA only, 0.1% w/v OA was used. […] The overnight culture was used to inoculate 7H9 media to an absorbance of 0.05 at 600 nm (1 cm pathlength) with carbon sources supplemented as described previously. […] Aliquots were taken every 2 h, and absorbance at 600 nm values were measured. To track the expression of the Pmft–pCherry fusion, fluorescence measurements were taken on a Cary Fluorimeter every 2 h using an excitation of 585 nm and an emission of 612 nm.

[2] = test system: mft BGC (MftA–mCherry reporter); experiment: Spot test growth analysis with Pmft–pCherry reporter; assay type: cell-based, Mycobacterium smegmatis mc^2155; settings: 7H9 with 0.05% w/v each glucose and OA, compared with glucose alone
Description: To directly establish that oleoyl-CoA induces MFT biosynthesis in vivo, a colony dilution experiment was carried out using Msmeg transformed with Pmft–pCherry grown on Middlebrook 7H9 (7H9) supplemented with glucose or oleic acid (OA). We used OA in the growth media since it is well known that bacterial fatty acid shuttle systems convert free fatty acids to the corresponding acyl-CoAs and since Msmeg encodes for at least two known fatty acid transporters ([48], [49]). […] To assess when this occurs in real time, growth curve assays with Msmeg/Pmft–pCherry were carried out. […] We observed the same effect when OA was added to the media after 12 h of incubation. Next, we determined if MFT induction is dependent on the concentration of OA. We carried out a titration series of growth curves where 7H9 media were supplemented with 0.05% w/v glucose and 0.01, 0.02, 0.05, or 0.1% w/v OA. […]
Figure 6 Induction of MFT biosynthesis by oleoyl-CoA in vivo. […] Fluorescence images were obtained simultaneously from two different petri dishes using 585 nm excitation and 635 nm emission wavelengths. […]
A single time point growth assay was standardized for the growth of Msmeg on 7H9 agar plates with various carbon sources supplemented. […] The absorbance was measured and converted to colony-forming units (CFUs) using the standard 3.13 × 10^7 CFU·ml^−1·absorbance^−1 conversion factor ([58]). […]

MftR (WT) = MftR (WT) (Mycolicibacterium smegmatis, UniProt A0QSB5); experiment: ITC binding of acyl-CoAs to MftR; set-up: species or system Mycobacterium smegmatis mc^2155
Description: ITC was performed using TA Nano ITC. MftR was loaded in the sample cell at the concentration of 16 and 250 μM acyl-CoAs (C12–C18) loaded in the syringe. To minimize the effect of buffer mismatch, the stock concentration of acyl-CoAs was prepared using ITC buffer (50 mM Hepes, 50 mM NaCl, and pH 7.5), and the pH was adjusted to within 0.05 units. In addition, MftR was buffer exchanged into ITC buffer using a PD-10 column (GE Life Sciences). The volume of the titrant added at each injection into the sample cell was 2.22 μl. The time interval between the successive injections was 180 s. The temperature of the cell was kept at 25 °C. The data obtained were fit by independent one-site model using NanoAnalyze Data Analysis, version 3.8.0, that was provided with the instrument.

MftR (WT), sequence (A0QSB5 entry or part of it): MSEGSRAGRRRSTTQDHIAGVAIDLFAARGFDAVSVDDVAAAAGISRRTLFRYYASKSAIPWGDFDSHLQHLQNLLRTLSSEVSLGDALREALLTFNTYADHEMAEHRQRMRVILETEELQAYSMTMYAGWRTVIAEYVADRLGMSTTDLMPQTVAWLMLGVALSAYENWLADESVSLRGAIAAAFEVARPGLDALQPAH

CC(C)(COP(=O)(O)OP(=O)(O)OC[C@H]1O[C@@H](n2cnc3c(N)ncnc32)[C@H](O)[C@@H]1OP(=O)(O)O)[C@@H](O)C(=O)NCCC(=O)NCCS [CoA]
disruption of the MftR–Omft complex (DNA release) (MftR–Omft complex): did not disrupt the MftR–Omft complex

CCCCCCCC/C=C\CCCCCCCC(=O)O [OA, oleic acid]
fluorescence intensity in OA titration series ([1]; 0.05% w/v OA with 0.05% w/v glucose, within 40 h): highest fluorescence intensity | fluorescence intensity compared with the control ([1]; 0.1% OA only, cultures at nearly the same absorbance): nearly three times | fluorescence intensity ([1]; OA added to the media after 12 h of incubation (glucose/OA 0.05% w/v each)): same effect | overall production of the MftA–mCherry fusion ([1]; increasing OA 0.01, 0.02, 0.05, 0.1% w/v with 0.05% w/v glucose): little effect | fluorescence intensity of colonies [2]: starkly increased

CC(=O)CC(=O)SCCNC(=O)CCNC(=O)[C@H](O)C(C)(C)COP(=O)(O)OP(=O)(O)OC[C@H]1O[C@@H](n2cnc3c(N)ncnc32)[C@H](O)[C@@H]1OP(=O)(O)O [acetoacetyl-CoA]
disruption of the MftR–Omft complex (DNA release) (MftR–Omft complex): did not observe DNA release

CC(C)CCC[C@@H](C)[C@H]1CC[C@H]2[C@@H]3CC=C4C[C@@H](O)CC[C@]4(C)[C@H]3CC[C@]12C [cholesterol]
disruption of the MftR–Omft complex (DNA release) (MftR–Omft complex): did not observe DNA release

CCCCCCCCCCCC(=O)SCCNC(=O)CCNC(=O)[C@H](O)C(C)(C)COP(=O)(O)OP(=O)(O)OC[C@H]1O[C@@H](n2cnc3c(N)ncnc32)[C@H](O)[C@@H]1OP(=O)(O)O [lauroyl-CoA]
decrease in binding affinity as compared with oleoyl-CoA (MftR (WT); ITC, WT MftR): ~10 fold

CCCCCCCCCCCCCC(=O)SCCNC(=O)CCNC(=O)[C@H](O)C(C)(C)COP(=O)(O)OP(=O)(O)OC[C@H]1O[C@@H](n2cnc3c(N)ncnc32)[C@H](O)[C@@H]1OP(=O)(O)O [myristoyl-CoA]
disruption of the MftR–Omft complex (DNA release) (MftR–Omft complex): disrupted the MftR–Omft complex

CCCCCCCCCCCCCCCC(=O)SCCNC(=O)CCNC(=O)[C@H](O)C(C)(C)COP(=O)(O)OP(=O)(O)OC[C@H]1O[C@@H](n2cnc3c(N)ncnc32)[C@H](O)[C@@H]1OP(=O)(O)O [palmitoyl-CoA]
Kd (MftR (WT)): 2 to 4 µM

CCC(=O)SCCNC(=O)CCNC(=O)[C@H](O)C(C)(C)COP(=O)(O)OP(=O)(O)OC[C@H]1O[C@@H](n2cnc3c(N)ncnc32)[C@H](O)[C@@H]1OP(=O)(O)O [propionyl-CoA]
disruption of the MftR–Omft complex (DNA release) (MftR–Omft complex): did not observe DNA release

CCCCCCCCCCCCCCCCCC(=O)SCCNC(=O)CCNC(=O)[C@H](O)C(C)(C)COP(=O)(O)OP(=O)(O)OC[C@H]1O[C@@H](n2cnc3c(N)ncnc32)[C@H](O)[C@@H]1OP(=O)(O)O [steroyl-CoA]
Kd (MftR (WT)): 2 to 4 µM

succinyl-CoA
disruption of the MftR–Omft complex (DNA release) (MftR–Omft complex): did not observe DNA release
